Assay [1] has as its target T1, Inhibitor of nuclear factor kappa-B kinase subunit beta (Homo sapiens, UniProt O14920).
T1 sequence (O14920 whole entry): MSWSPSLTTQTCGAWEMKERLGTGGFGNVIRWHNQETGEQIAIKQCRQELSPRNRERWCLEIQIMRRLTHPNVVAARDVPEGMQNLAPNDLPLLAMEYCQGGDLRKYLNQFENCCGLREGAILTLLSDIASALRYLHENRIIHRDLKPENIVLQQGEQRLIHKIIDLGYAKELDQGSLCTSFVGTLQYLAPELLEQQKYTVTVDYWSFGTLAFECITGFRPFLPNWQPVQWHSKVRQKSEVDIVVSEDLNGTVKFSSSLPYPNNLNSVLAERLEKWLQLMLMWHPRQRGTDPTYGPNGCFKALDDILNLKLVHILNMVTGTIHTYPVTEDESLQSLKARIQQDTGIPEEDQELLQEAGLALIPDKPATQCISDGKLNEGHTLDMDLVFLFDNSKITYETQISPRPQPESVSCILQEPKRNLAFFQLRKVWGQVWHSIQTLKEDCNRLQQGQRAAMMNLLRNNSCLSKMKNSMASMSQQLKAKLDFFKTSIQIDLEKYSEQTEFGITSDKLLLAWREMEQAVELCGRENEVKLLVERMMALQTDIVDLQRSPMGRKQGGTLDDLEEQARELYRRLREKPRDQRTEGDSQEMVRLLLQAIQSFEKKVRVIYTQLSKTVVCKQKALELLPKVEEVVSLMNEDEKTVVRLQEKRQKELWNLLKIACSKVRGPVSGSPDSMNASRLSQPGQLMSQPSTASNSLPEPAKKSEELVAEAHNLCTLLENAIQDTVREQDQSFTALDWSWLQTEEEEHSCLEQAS
The assay can be described thus: Inhibition of human IKKbeta using ERLLDDRHDSGLDSMKDEE as substrate after 60 mins in presence of ATP by ADP-Glo kinase assay.

Assay [2] addresses T2, Inhibitor of nuclear factor kappa-B kinase subunit beta (Homo sapiens) (UniProt O14920).
T2 sequence (whole entry): T1 sequence (O14920 whole entry)
The experiment in a line: Inhibition of human IKKbeta at 100 uM using ERLLDDRHDSGLDSMKDEE as substrate after 60 mins in presence of ATP by ADP-Glo kinase assay relative to control.

For assay [3], the target named is T3, Inhibitor of nuclear factor kappa-B kinase subunit alpha (Homo sapiens, UniProt O15111).
T3 sequence (O15111 whole entry): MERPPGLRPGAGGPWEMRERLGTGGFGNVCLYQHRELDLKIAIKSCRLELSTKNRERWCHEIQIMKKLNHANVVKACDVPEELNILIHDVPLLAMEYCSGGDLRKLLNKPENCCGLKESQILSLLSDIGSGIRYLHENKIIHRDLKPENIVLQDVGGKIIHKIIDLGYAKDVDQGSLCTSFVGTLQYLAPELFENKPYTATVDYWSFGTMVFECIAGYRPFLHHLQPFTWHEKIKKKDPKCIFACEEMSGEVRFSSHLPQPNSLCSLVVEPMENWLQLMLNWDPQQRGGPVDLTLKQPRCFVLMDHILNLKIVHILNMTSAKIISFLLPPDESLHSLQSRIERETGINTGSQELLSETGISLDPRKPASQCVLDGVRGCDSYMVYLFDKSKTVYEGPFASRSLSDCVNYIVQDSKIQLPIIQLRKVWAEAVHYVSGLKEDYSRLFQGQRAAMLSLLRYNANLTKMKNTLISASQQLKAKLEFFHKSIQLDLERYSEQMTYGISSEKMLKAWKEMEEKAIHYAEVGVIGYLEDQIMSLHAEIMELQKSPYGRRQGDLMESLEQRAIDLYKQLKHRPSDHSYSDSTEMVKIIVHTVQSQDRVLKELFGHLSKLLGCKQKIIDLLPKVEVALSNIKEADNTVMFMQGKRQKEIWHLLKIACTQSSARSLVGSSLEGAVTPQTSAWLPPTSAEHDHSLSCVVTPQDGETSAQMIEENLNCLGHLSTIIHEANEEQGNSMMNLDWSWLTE
The experiment in a line: Inhibition of human IKKalpha using ERLLDDRHDSGLDSMKDEE as substrate after 60 mins in presence of ATP by ADP-Glo kinase assay.

The target of assay [4] is T4, Inhibitor of nuclear factor kappa-B kinase subunit alpha (Homo sapiens) (UniProt O15111).
T4 sequence (whole entry): T3 sequence (O15111 whole entry)
The assay can be described thus: Inhibition of human IKKalpha at 100 uM using ERLLDDRHDSGLDSMKDEE as substrate after 60 mins in presence of ATP by ADP-Glo kinase assay relative to control.

The target of assay [5] is T5, Inhibitor of nuclear factor kappa-B kinase subunit epsilon (Homo sapiens, UniProt Q14164).
T5 sequence (Q14164 whole entry): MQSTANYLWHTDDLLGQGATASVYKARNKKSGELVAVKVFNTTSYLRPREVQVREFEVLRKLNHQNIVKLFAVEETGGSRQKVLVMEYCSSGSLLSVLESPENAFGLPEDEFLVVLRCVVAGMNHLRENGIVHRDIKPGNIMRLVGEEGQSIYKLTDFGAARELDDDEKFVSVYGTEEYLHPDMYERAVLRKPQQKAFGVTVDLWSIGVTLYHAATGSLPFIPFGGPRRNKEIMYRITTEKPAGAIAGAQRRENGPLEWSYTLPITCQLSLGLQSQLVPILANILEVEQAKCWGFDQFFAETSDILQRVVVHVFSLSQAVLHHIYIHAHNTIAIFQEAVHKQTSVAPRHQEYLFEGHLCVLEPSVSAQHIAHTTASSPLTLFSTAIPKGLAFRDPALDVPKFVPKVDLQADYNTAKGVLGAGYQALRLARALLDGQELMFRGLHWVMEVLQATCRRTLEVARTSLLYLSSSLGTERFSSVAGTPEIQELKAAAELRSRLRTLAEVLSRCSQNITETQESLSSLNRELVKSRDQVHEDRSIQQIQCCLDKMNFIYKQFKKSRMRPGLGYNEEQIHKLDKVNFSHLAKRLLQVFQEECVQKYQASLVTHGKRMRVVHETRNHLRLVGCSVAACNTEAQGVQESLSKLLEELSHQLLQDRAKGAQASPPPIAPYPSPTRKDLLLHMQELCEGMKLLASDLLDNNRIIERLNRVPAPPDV
The experiment in a line: Inhibition of human IKKepsilon using ERLLDDRHDSGLDSMKDEE as substrate after 60 mins in presence of ATP by ADP-Glo kinase assay.

The target of assay [6] is T6, Mitogen-activated protein kinase kinase kinase 14 (Homo sapiens, UniProt Q99558). The experiment in a line: Inhibition of human NIK using AKDVDQGSLCTSFVGTLQY as substrate after 60 mins in presence of ATP by ADP-Glo kinase assay.
Target sequence in this assay (Q99558 whole entry): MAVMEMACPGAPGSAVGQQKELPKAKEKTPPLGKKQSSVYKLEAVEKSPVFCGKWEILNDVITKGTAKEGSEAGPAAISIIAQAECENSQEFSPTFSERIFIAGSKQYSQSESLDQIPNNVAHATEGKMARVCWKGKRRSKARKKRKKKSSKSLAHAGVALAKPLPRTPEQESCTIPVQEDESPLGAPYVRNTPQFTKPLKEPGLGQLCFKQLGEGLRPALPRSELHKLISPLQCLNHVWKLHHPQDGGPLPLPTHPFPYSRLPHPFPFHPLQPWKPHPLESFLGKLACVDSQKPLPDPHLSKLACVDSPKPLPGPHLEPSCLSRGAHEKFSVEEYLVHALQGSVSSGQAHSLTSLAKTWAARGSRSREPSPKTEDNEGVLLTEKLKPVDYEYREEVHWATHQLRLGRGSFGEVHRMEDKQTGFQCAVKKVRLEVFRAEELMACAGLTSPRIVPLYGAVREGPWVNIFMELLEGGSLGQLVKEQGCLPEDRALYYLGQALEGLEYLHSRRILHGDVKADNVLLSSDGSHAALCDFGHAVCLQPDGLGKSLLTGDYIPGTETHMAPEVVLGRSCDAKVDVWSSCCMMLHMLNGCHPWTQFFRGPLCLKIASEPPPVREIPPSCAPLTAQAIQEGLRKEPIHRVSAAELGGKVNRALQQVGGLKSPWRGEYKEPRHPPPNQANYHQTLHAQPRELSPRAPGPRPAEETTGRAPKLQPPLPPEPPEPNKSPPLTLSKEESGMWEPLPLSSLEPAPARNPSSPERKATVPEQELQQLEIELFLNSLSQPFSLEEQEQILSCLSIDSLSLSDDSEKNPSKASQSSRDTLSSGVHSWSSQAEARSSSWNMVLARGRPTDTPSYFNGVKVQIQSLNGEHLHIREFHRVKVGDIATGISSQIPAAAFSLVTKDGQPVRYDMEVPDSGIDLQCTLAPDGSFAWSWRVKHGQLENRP
Assay [7] concerns the target T6, Mitogen-activated protein kinase kinase kinase 14. The assay can be described thus: Inhibition of human NIK at 100 uM using AKDVDQGSLCTSFVGTLQY as substrate after 60 mins in presence of ATP by ADP-Glo kinase assay relative to control.
Target sequence in this assay (Q99558 whole entry, looked up): as the sequence (Q99558 whole entry) above
Assay [8] concerns the target T1, Inhibitor of nuclear factor kappa-B kinase subunit beta. The assay can be described thus: Inhibition of IKK-beta in human Jurkat cells assessed as reduction in TNFalpha-stimulated IkBalpha degradation preincubated for 60 mins followed by TNFalpha stimulation for 20 mins by immunoblot analysis. It counts as cell-based.
Assay [9] concerns the target T7, Inhibitor of nuclear factor kappa-B kinase subunit epsilon (Homo sapiens) (UniProt Q14164).
T7 sequence (whole entry): T5 sequence (Q14164 whole entry)
The assay can be described thus: Inhibition of human IKKepsilon at 100 uM using ERLLDDRHDSGLDSMKDEE as substrate after 60 mins in presence of ATP by ADP-Glo kinase assay relative to control.

On to `O=C(Nc1cc(C(F)(F)F)cc(C(F)(F)F)c1)c1nonc1O`, for which the IC50 in assay [1] is over 100 µM; in [3], over 100 µM; in assay [5], 58.5 µM; in assay [6], over 100 µM; in assay [8] it was 6.93 µM. In addition, the inhibition in [2] stood at 12.2%; in [4], 18.6%; in assay [7], 19.3%.
For the compound `Cn1nc(O)c(C(=O)Nc2cc(C(F)(F)F)cc(C(F)(F)F)c2)n1`, the IC50 in assay [1], in assay [3], in assay [5], in [6] and in assay [8] was over 100 µM each time. Further, the inhibition worked out at 5.19% in [2], 46.9% in assay [4], 6.92% in assay [9] and 9.1% in assay [7].
Turning to `Nc1nonc1C(=O)Nc1cc(C(F)(F)F)cc(C(F)(F)F)c1`, the IC50 is over 100 µM in assay [1]; over 100 µM in assay [3]; 44.8 µM in assay [5]; over 100 µM in assay [6]; over 100 µM in [8]. Moreover, the inhibition is 31.6% in assay [2], 29.3% in assay [4] and -9.2% in assay [7].
Turning to `COc1nsnc1C(=O)Nc1cc(C(F)(F)F)cc(C(F)(F)F)c1`, the IC50 in assay [1], in [3], in assay [5], in assay [6] and in assay [8] was over 100 µM in each case. Besides, the inhibition is 8.51% in assay [2], 24.1% in assay [4], 21.9% in assay [9] and -1.9% in [7].
`Cc1c(C(=O)Nc2cc(C(F)(F)F)cc(C(F)(F)F)c2)c(O)nn1C`: the IC50 is over 100 µM in assay [1]; over 100 µM in [3]; over 100 µM in assay [5]; over 100 µM in assay [6]; 1.32 µM in assay [8]. Besides, the inhibition was 13.9% in assay [2], 13.2% in [4], 14.2% in [9] and 24.1% in assay [7].
Consider `Cn1nnc(O)c1C(=O)Nc1cc(C(F)(F)F)cc(C(F)(F)F)c1`, for which the IC50 was over 100 µM in assay [1]; over 100 µM in assay [3]; 58.5 µM in [5]; over 100 µM in assay [6]; over 100 µM in assay [8]. The inhibition in [2] was 11.2%; in assay [4], 13.1%; in [7], 12.1%.
Take `Cn1cc(C(=O)Nc2cc(C(F)(F)F)cc(C(F)(F)F)c2)c(O)n1`: the IC50 in assay [1] was over 100 µM; in assay [3], over 100 µM; in assay [5] it was over 100 µM; in [6], over 100 µM; in assay [8], 25.9 µM. Further, the inhibition was determined as 12.7% in assay [2], 12.1% in assay [4], 17.2% in [9] and 7.23% in assay [7].
On to `O=C(Nc1cccc(C(F)(F)F)c1)c1nsnc1O`, for which the 50% inhibitory concentration (IC50) was over 100 µM in assay [1]; 35.5 µM in [3]; over 100 µM in assay [5]; over 100 µM in assay [6]; over 100 µM in [8]. The inhibition is -0.94% in assay [2], 25.8% in [9] and -1.1% in assay [7].
With `O=C(Nc1cc(C(F)(F)F)cc(C(F)(F)F)c1)c1n[nH]nc1O`, the IC50 in assay [1], in [3], in assay [5], in assay [6] and in assay [8] was over 100 µM in each case. Further, the inhibition in [2] was 5.14%; in assay [4], 24.5%; in [9], 15.3%; in [7] it was -9.5%.
On to `O=C(Nc1cccc(C(F)(F)F)c1)c1nonc1O`, for which the half-maximal inhibitory concentration (IC50) was over 100 µM in [1]; over 100 µM in assay [3]; over 100 µM in assay [5]; over 100 µM in assay [6]; 1.72 µM in assay [8]. The inhibition in assay [2] is 2.06%; in assay [4], -2.5%; in assay [9], 32.1%; in assay [7] it was 11.8%.

For the origin of these results see ChEMBL document CHEMBL4261552, “4-Hydroxy-N-[3,5-bis(trifluoromethyl)phenyl]-1,2,5-thiadiazole-3-carboxamide: a novel inhibitor of the canonical NF-κB cascade” (Medchemcomm, 2017).
